Reference: patent publication US11180462B2, “Microbiocidal oxadiazole derivatives” (SYNGENTA PARTICIPATIONS AG, priority 2015, dated 2021)

Legend:
[1] = system: Puccinia recondita f. Sp. Tritici; assay: Fungicidal activity against Puccinia recondita f. sp. tritici / wheat / leaf disc preventative (brown rust); type: in vivo; conditions: foliar, 200 ppm in the applied formulation, wheat leaf segments, preventative, compared to untreated control leaf disks, read-out: disease control
Outline: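 200 ppm spray on wheat cv. Kanzler leaf segments; spore inoculation +1 day; 19° C., 75% rh, 12 h/12 h light cycle; single rating of % control vs untreated at 7 to 9 days.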

[2] = system: Puccinia recondita f. Sp. Tritici; assay: Fungicidal activity against Puccinia recondita f. sp. tritici / wheat / leaf disc curative (brown rust); type: in vivo; conditions: foliar, 24 h, 200 ppm in the applied formulation, wheat leaf segments, curative (applied 1 day after inoculation), compared to untreated control leaf disks, read-out: disease control
Outline: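 Curative leaf-segment test: compound diluted in water applied 1 day after spore inoculation of cv. Kanzler wheat segments on agar. Conditions 19° C, 75% RH, 12 h/12 h light cycle. Read-out: % disease control relative to untreated check, 6 to 8 days after application.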

Phakopsora Pachyrhizi = assay: Fungicidal activity against Phakopsora pachyrhizi / soybean / leaf disc preventative (Asian soybean rust); type: in vivo; conditions: foliar, 200 ppm in the applied formulation, soybean leaf disks, compared to untreated control leaf disks, read-out: disease control
Outline: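 Scored 12 to 14 days post-application as percent control relative to untreated check discs, rust spores were sprayed under the disc one day after compound treatment. Incubation: 20°C, 75% rh, first 24–36 h in darkness, then 12 h daily light; discs kept on water agar.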

[3] = system: Glomerella lagenarium (Colletotrichum lagenarium); assay: Fungicidal activity against Glomerella lagenarium (Colletotrichum lagenarium) liquid culture / cucumber / preventative (anthracnose); type: cell-based; conditions: Colletotrichum orbiculare; 20 ppm in the applied formulation; liquid culture (PDB), growth inhibition measured photometrically after 3 to 4 days; compared to untreated control; read-out: disease control
Outline: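 Percent activity against the untreated check was derived from photometric growth measurements made 2 to 7 days after conidia in potato dextrose broth were combined with compound at 20 ppm. Cultures were kept dark at 24 °C and 96% humidity.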

CON(C(=O)C1CCCO1)C(C)c1ccc(-c2noc(C(F)(F)F)n2)cc1 (stereo not drawn) [Compound 1.273, N-methoxy-N-[1-[4-[5-(trifluoromethyl)-1,2,4-oxadiazol-3-yl]phenyl]ethyl]-tetrahydrofuran-2-carboxamide]
≥ 80%: pest or weed control at 200 ppm [1] | pest or weed control at 200 ppm [2] | pest or weed control at 200 ppm (Phakopsora Pachyrhizi) | inhibition of growth at 20 ppm [3]

CN(C(=O)C1CC1)C(C#N)c1ccc(-c2noc(C(F)(F)F)n2)cc1 (stereo not drawn) [Compound 1.612, N-[cyano-[4-[5-(trifluoromethyl)-1,2,4-oxadiazol-3-yl]phenyl]methyl)-N-methyl-cyclopropane-carboxamide]
≥ 80%: pest or weed control at 200 ppm [1] | pest or weed control at 200 ppm [2] | pest or weed control at 200 ppm (Phakopsora Pachyrhizi) | inhibition of growth at 20 ppm [3]

CCC(=O)N(Cc1ccc(-c2noc(C(F)(F)F)n2)cc1)C1CC1 [Compound 1.119, N-cyclopropyl-N-[[4-[5-(trifluoromethyl)-1,2,4-oxadiazol-3-yl]phenyl]methyl]-propanamide]
≥ 80%: pest or weed control at 200 ppm [1] | pest or weed control at 200 ppm [2] | pest or weed control at 200 ppm (Phakopsora Pachyrhizi) | inhibition of growth at 20 ppm [3]

C#CCN(Cc1ccc(-c2noc(C(F)(F)F)n2)cc1)C(=O)C(C)CC (stereo not drawn) [Compound 1.191, 2-methyl-N-prop-2-ynyl-N-[[4-[5-(trifluoromethyl)-1,2,4-oxadiazol-3-yl]phenyl]methy]-butanamide]
≥ 80%: pest or weed control at 200 ppm [1] | pest or weed control at 200 ppm [2] | pest or weed control at 200 ppm (Phakopsora Pachyrhizi) | inhibition of growth at 20 ppm [3]

CC1(C(=O)N(Cc2ccc(-c3noc(C(F)(F)F)n3)cc2)C2COC2)CC1 [Compound 1.743, 1-methyl-N-(oxetan-3-yl)-N-[[4-[5-(trifluoromethyl)-1,2,4-oxadiazol-3-yl]phenyl]methyl]-cyclopropane-carboxamide]
≥ 80%: pest or weed control at 200 ppm [1] | pest or weed control at 200 ppm [2] | pest or weed control at 200 ppm (Phakopsora Pachyrhizi) | inhibition of growth at 20 ppm [3]

O=C(ON(Cc1ccc(-c2noc(C(F)(F)F)n2)cc1)C(=O)C1CCC1)C1CCC1 [Compound 1.762, [cyclobutane-carbonyl-[[4-[5-(trifluoromethyl)-1,2,4-oxadiazol-3-yl]phenyl]methyl]-amino] cyclobutane-carboxylate]
≥ 80%: pest or weed control at 200 ppm [1] | pest or weed control at 200 ppm [2] | pest or weed control at 200 ppm (Phakopsora Pachyrhizi) | inhibition of growth at 20 ppm [3]

CN(Cc1ccc(-c2noc(C(F)(F)F)n2)cc1)C(=O)C1CCCC1 [Compound 1.515, N-methyl-N-[[4-[5-(trifluoromethyl)-1,2,4-oxadiazol-3-yl]phenyl]methyl]-cyclopentane-carboxamide]
≥ 80%: pest or weed control at 200 ppm [1] | pest or weed control at 200 ppm [2] | pest or weed control at 200 ppm (Phakopsora Pachyrhizi) | inhibition of growth at 20 ppm [3]

CON(Cc1ccc(-c2noc(C(F)(F)F)n2)cc1)C(=O)C1CC1(F)F (stereo not drawn) [Compound 1.15, 2,2-difluoro-N-methoxy-N-[[4-[5-(trifluoromethyl)-1,2,4-oxadiazol-3-yl]phenyl]methyl]-cyclopropane-carboxamide]
≥ 80%: pest or weed control at 200 ppm [1] | pest or weed control at 200 ppm [2] | pest or weed control at 200 ppm (Phakopsora Pachyrhizi) | inhibition of growth at 20 ppm [3]

CCC(C)N(Cc1ccc(-c2noc(C(F)(F)F)n2)cc1)C(=O)COCCOC (stereo not drawn) [Compound 1.384, 2-(2-methoxyethoxy)-N-sec-butyl-N-[[4-[5-(trifluoromethyl)-1,2,4-oxadiazol-3-yl]phenyl]methyl]-acetamide]
≥ 80%: pest or weed control at 200 ppm [1] | pest or weed control at 200 ppm [2] | pest or weed control at 200 ppm (Phakopsora Pachyrhizi) | inhibition of growth at 20 ppm [3]
